One data set concerns the target human CYP2D6 (Homo sapiens, UniProt P10635).
Data set [1] has as its target T1, human CYP2C19 (Homo sapiens, UniProt P33261). Kind of data set: biochemical. The settings on record: CYP2C19 AC50 (half-maximal activity concentration).
The target in another data set is T2, human CYP1A2 (Homo sapiens, UniProt P05177).
T2 sequence (P05177 1-516): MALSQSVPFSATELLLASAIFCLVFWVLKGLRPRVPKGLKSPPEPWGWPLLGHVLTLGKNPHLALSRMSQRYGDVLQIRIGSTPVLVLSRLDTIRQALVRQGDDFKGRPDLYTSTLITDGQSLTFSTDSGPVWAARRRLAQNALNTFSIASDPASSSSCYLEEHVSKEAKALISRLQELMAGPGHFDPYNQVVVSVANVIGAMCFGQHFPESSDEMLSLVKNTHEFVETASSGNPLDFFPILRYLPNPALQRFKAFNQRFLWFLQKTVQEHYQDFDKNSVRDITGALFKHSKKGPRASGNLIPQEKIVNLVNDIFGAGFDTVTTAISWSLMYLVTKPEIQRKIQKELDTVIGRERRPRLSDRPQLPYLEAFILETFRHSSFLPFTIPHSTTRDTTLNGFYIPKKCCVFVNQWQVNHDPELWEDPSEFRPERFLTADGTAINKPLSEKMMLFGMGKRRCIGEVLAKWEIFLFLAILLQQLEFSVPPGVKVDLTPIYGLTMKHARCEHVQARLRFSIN
Briefly: biochemical.

For a further data set, the target named is CYP3A4 (Homo sapiens, UniProt P08684). Kind of data set: biochemical.
The next data set concerns the target human CYP2C9 (Homo sapiens, UniProt P11712). Kind of data set: biochemical.
Data set [2] has as its target T1, human CYP2C19.
The mark [3] stands for this setting: CYP1A2 AC50 (half-maximal activity concentration).
[4] abbreviates: CYP3A4 AC50 (half-maximal activity concentration).
Setting [5] is: CYP2C9 AC50 (half-maximal activity concentration).

Like-named read-outs stand apart in the source and are kept apart here.

human CYP2D6, sequence (P10635 whole entry): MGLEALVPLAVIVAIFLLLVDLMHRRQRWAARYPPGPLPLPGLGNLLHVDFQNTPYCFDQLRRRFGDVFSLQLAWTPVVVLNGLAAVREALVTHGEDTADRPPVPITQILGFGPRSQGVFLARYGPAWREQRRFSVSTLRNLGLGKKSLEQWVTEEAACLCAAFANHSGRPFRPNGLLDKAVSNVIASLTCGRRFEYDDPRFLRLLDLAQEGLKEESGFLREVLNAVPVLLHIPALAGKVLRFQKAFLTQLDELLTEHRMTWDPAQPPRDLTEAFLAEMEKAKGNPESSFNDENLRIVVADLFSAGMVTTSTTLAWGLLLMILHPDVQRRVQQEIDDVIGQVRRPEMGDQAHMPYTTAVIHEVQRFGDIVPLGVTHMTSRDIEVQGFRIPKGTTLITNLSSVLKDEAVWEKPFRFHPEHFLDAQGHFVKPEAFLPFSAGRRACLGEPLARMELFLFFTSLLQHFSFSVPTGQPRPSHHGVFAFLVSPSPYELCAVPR
human CYP2C9, sequence (P11712 whole entry): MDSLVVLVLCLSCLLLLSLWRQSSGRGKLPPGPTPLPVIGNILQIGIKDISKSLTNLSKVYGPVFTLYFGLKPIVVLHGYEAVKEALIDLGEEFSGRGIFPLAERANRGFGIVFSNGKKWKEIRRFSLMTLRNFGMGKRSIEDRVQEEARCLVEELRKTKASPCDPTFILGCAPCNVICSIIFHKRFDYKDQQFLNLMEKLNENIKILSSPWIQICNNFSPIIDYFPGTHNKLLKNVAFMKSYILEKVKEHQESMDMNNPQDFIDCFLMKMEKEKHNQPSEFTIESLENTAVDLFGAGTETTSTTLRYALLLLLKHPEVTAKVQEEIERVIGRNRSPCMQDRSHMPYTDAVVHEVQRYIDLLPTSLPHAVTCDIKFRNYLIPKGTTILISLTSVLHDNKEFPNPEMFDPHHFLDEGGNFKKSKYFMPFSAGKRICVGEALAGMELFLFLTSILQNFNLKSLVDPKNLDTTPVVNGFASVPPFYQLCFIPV
T1 sequence (P33261 whole entry): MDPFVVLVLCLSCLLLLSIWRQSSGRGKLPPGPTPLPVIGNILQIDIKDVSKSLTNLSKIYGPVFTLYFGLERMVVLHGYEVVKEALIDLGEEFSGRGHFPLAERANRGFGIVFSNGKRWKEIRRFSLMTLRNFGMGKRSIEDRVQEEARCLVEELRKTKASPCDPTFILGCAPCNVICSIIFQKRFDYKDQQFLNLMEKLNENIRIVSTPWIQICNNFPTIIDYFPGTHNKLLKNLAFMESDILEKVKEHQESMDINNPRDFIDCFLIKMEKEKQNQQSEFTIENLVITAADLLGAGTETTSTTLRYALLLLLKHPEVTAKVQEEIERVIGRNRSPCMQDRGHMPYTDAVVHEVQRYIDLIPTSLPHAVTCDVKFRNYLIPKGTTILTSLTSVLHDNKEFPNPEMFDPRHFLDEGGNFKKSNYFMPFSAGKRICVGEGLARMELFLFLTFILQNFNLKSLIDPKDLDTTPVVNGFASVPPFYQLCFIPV
CYP3A4, sequence (P08684 whole entry): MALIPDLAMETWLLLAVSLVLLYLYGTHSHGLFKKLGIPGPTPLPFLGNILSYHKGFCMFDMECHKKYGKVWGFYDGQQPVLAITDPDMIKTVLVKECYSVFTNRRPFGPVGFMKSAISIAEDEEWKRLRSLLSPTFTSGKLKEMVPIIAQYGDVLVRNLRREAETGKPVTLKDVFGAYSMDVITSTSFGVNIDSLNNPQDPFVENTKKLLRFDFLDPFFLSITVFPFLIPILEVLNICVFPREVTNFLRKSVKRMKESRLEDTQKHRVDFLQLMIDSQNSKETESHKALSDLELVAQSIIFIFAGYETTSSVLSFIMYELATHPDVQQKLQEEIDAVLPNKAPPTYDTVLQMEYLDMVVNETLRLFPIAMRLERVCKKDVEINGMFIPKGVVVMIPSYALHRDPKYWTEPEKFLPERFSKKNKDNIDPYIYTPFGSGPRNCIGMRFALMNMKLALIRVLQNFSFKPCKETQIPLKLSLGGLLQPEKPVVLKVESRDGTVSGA

As a reminder, the AC50 is the concentration at which the activity in the assay is half-maximal. With `Cc1c(C)c([N+](=O)[O-])c(C(C)(C)C)c([N+](=O)[O-])c1C`, the “CYP2D6 AC50 (half-maximal activity concentration)” value (“CYP2D6 AC50” below) at human CYP2D6 is listed as “Inactive”. Also, the AC50 was 22.8 µM on human CYP2C19 [1], 17.5 µM at human CYP1A2 (setting [3]), 12.2 µM at CYP3A4 (setting [4]) and 51.7 µM at human CYP2C9 (setting [5]).
As to `O=[N+]([O-])c1cc(C(F)(F)F)cc([N+](=O)[O-])c1Cl`, the “CYP2D6 AC50” value at human CYP2D6 is listed as “Inconclusive inhibitor”. Besides, the AC50 turned out to be 56.7 µM on human CYP2C19 [1], 64.7 µM on human CYP1A2 (setting [3]), 49.2 µM on CYP3A4 (setting [4]) and 18 µM on human CYP2C9 (setting [5]).
With `N#CCCC(Br)(C#N)CBr` (centres unmarked) [1,2-Dibromo-2,4-dicyanobutane], the “CYP2D6 AC50” value at human CYP2D6 is “Inconclusive inhibitor”. For the same compound, the AC50 on human CYP2C19 [1] came out at 11.5 µM; at human CYP1A2 (setting [3]) it was 14.6 µM; on CYP3A4 (setting [4]), 9.92 µM; on human CYP2C9 (setting [5]), 8.43 µM.
`c1cnc2c(c1)ccc1cccnc12` [1,10-Phenanthroline]: on human CYP2D6, the “CYP2D6 AC50” value is on record as “Inconclusive inhibitor”. In addition, the AC50 on human CYP2C19 [1] was determined as 11.9 µM; on human CYP1A2 (setting [3]), 11.7 µM; at CYP3A4 (setting [4]) it was 69.5 µM; at human CYP2C9 (setting [5]) it was 4.65 µM.
`CCCCCCCCCC(C)C=O` (centres unmarked) [2-Methylundecanal]: the “CYP2D6 AC50” value at human CYP2D6 is “Inactive”. Besides, the AC50 is 74.2 µM on human CYP1A2 (setting [3]), 87.3 µM on CYP3A4 (setting [4]) and 65.1 µM at human CYP2C9 (setting [5]). For the same compound, the “CYP2C19 AC50 (half-maximal activity concentration)” value (“CYP2C19 AC50” below) on human CYP2C19 [2] is recorded as “Inconclusive inhibitor”.
`Oc1nc(Cl)c(Cl)cc1Cl` [3,5,6-Trichloro-2-pyridinol]: the “CYP2D6 AC50” value at human CYP2D6 was “Inconclusive inhibitor”. For the same compound, the figures for the AC50 on human CYP1A2 (setting [3]), on CYP3A4 (setting [4]) and on human CYP2C9 (setting [5]) were 47.9 µM, 65.8 µM and 45.4 µM, respectively. Besides, the “CYP2C19 AC50” value at human CYP2C19 [2] was “Inconclusive inhibitor”.
`CCNc1nc(NC(C)C)nc(SC)n1` [Ametryn]: the “CYP2D6 AC50” value on human CYP2D6 is recorded as “Inactive”. The values for the AC50 at human CYP1A2 (setting [3]), at CYP3A4 (setting [4]) and at human CYP2C9 (setting [5]) were 9.81 µM, 29.2 µM and 20.8 µM, respectively. Also, at human CYP2C19 [2], the “CYP2C19 AC50” value is given as “Inconclusive inhibitor”.
Regarding `CCOC(=O)CCCCCCCCC(=O)OCC` [Diethyl decanedioate], the “CYP2D6 AC50” value at human CYP2D6 was “Inactive”. Further, the results for the AC50 on human CYP1A2 (setting [3]), on CYP3A4 (setting [4]) and at human CYP2C9 (setting [5]) were 35.2 µM, 26.2 µM and 42.2 µM, respectively. Besides, the “CYP2C19 AC50” value at human CYP2C19 [2] is “Inconclusive inhibitor”.
Consider `CCC(C)c1cc([N+](=O)[O-])cc([N+](=O)[O-])c1O` (centres unmarked) [Dinoseb], for which the figures for the AC50 at human CYP2C19 [1], on human CYP1A2 (setting [3]) and at CYP3A4 (setting [4]) were 76.8 µM, 58.1 µM and 33.9 µM, respectively.
For the compound `CC(C)(C)c1cc([N+](=O)[O-])cc([N+](=O)[O-])c1O` [Dinoterb], the “CYP2D6 AC50” value on human CYP2D6 is recorded as “Inconclusive inhibitor”. For the same compound, the AC50 on human CYP1A2 (setting [3]) was 48 µM; on CYP3A4 (setting [4]), 24.7 µM; at human CYP2C9 (setting [5]), 17.8 µM. In addition, the “CYP2C19 AC50” value at human CYP2C19 [2] is listed as “Inconclusive inhibitor”.
Turning to `Oc1c(Br)c(Br)c(Br)c(Br)c1Br` [Pentabromophenol], the “CYP2D6 AC50” value at human CYP2D6 is “Inactive”. The results for the AC50 on human CYP1A2 (setting [3]), at CYP3A4 (setting [4]) and on human CYP2C9 (setting [5]) were 57.8 µM, 70.2 µM and 30.1 µM, respectively. For the same compound, the “CYP2C19 AC50” value at human CYP2C19 [2] is given as “Inconclusive”.
With `Oc1c(Cl)c(Cl)c(Cl)c(Cl)c1Cl` [Pentachlorophenol], at human CYP2D6, the “CYP2D6 AC50” value is on record as “Inactive”. In addition, the results for the AC50 at human CYP2C19 [1], at human CYP1A2 (setting [3]) and at CYP3A4 (setting [4]) were 52.3 µM, 67.4 µM and 54.4 µM, respectively.
As to `O=C(Oc1ccccc1)c1ccccc1` [Phenyl benzoate], at human CYP2D6, the “CYP2D6 AC50” value is “Inactive”. Further, the AC50 at human CYP1A2 turned out to be 71 µM; on CYP3A4 it was 58.7 µM; on human CYP2C9, 62.1 µM. Also, the “CYP2C19 AC50” value at human CYP2C19 [2] was “Inactive”.

The record behind these values is article PMC12155096 (International Journal of Molecular Sciences, 2025).
